Values quoted from earlier work as cited in US20210176995A1, “Disinfection Composition Comprising Tartaric Acid and Lactic Acid” (Wiping Systems ApS, priority 2016, published 2021).

System: Aspergillus b., Bacillus S., Cereus and Clostridium spores
Details: surfaces

Row | Compound | killing of Aspergillus b., Bacillus S., Cereus and Clostridium spores
1 | CCCCCCCCCC[N+](C)(C)CCCCCCCCCC.[Cl-] [DDAC] | can't be killed
2 | CCO [alcohol, ethanol] | can't be killed
3 | PHMB | can't be killed
